# Reference: patent publication US8580965B2, “Substituted sulfonamide compounds” (Gruenenthal GmbH, priority 2006, dated 2013)
# Columns and labels:
# [1] = target: T1, human B1R receptor (bradykinin 1 receptor) (Homo sapiens, UniProt P46663); test: FLIPR Ca2+ assay (Fluo-4) on CHO K1 cells stably transfected with the human B1R gene; % activation and % inhibition at 10 μM; assay type: cell-based; conditions: CHO-K1, test substance 10 μM; CHO K1 hB1R cells; Ca2+ inflow after 0.5 nM Lys-Des-Arg9-bradykinin; read-out: B1R antagonism, human [10 μM] % inhibition
# T1 construct: host or cells: CHO K1 cells (hB1R cells)
# T1 sequence (P46663 1-353): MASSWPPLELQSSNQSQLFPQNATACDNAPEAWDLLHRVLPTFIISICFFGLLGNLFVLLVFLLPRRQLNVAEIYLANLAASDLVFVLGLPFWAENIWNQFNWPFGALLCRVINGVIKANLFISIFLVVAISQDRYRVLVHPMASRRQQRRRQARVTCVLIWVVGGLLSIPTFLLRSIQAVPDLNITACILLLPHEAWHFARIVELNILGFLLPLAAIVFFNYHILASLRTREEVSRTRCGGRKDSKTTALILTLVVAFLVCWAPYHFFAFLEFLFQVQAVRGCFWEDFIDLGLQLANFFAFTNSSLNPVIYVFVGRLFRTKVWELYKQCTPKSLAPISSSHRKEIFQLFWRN
# Method in brief: (§1)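 CHO K1 cells stably expressing human or rat B1R, Fluo-4 loaded, read by FLIPR (peak fluorescence). Compound at 10 µM first gives % activation versus agonist; after 10 min, agonist (human: 0.5 nM Lys-Des-Arg9-bradykinin; rat: 100 nM Des-Arg9-bradykinin) gives % inhibition relative to maximal inhibition.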
# [2] = target: T2, B1R receptor of the rat (bradykinin 1 receptor) (Rattus norvegicus, UniProt P97583); test: FLIPR Ca2+ assay (Fluo-4) on CHO K1 cells stably transfected with the B1R gene of the rat; % activation and % inhibition at 10 μM; assay type: cell-based; conditions: CHO-K1, test substance 10 μM; CHO K1 rB1R cells; Ca2+ inflow after 100 nM Des-Arg9-bradykinin; read-out: B1R antagonism, rat [10 μM] % inhibition
# T2 construct: host or cells: CHO K1 cells (rB1R cells)
# T2 sequence (P97583 1-337): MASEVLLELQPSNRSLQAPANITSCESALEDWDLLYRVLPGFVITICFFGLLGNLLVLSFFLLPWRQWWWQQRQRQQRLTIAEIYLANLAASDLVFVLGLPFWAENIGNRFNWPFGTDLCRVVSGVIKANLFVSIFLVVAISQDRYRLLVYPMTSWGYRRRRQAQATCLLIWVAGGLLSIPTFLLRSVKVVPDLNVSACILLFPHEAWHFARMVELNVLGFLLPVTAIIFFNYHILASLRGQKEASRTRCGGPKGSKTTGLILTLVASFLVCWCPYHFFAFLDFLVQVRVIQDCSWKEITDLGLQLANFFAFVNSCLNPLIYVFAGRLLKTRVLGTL
# Method in brief: as §1
smiles,measurement,setting,value
"COc1cc(C)c(S(=O)(=O)N2Cc3ccccc3CC2COCC(=O)N2CCC(O)(Cc3ccccc3)CC2)c(C)c1C (centres unmarked) [Example 232, 1-(4-benzyl-4-hydroxypiperidin-1-yl)-2-((2-(4-methoxy-2,3,6-trimethylphenylsulfonyl)-1,2,3,4-tetrahydroisoquinolin-3-yl)methoxy)ethanone]",inhibition at 10 µM,[1],54.5%
same,inhibition at 10 µM,[2],63.1%
"COc1cc(C)c(S(=O)(=O)N2Cc3ccccc3CC2COCC(=O)N2CCC(O)(c3cccc(C(F)(F)F)c3)CC2)c(C)c1C (centres unmarked) [Example 233, 1-(4-hydroxy-4-(3-(trifluoromethyl)phenyl)piperidin-1-yl)-2-((2-(4-methoxy-2,3,6-trimethylphenylsulfonyl)-1,2,3,4-tetrahydroisoquinolin-3-yl)methoxy)ethanone]",inhibition at 10 µM,[1],38.9%
same,inhibition at 10 µM,[2],70.2%
"O=C(COCC1CCCCN1S(=O)(=O)c1c(Cl)cccc1Cl)N1CCC(O)(c2ccc(Br)cc2)CC1 (centres unmarked) [Example 234, 1-(4-(4-bromophenyl)-4-hydroxypiperidin-1-yl)-2-((1-(2,6-dichlorophenylsulfonyl)piperidin-2-yl)methoxy)ethanone]",inhibition at 10 µM,[1],102%
same,inhibition at 10 µM,[2],99.3%
"O=C(COCC1CCCCN1S(=O)(=O)c1c(Cl)cccc1Cl)N1CCC(O)(c2cccc(C(F)(F)F)c2)CC1 (centres unmarked) [Example 235, 2-((1-(2,6-dichlorophenylsulfonyl)piperidin-2-yl)methoxy)-1-(4-hydroxy-4-(3-(trifluoromethyl)phenyl)piperidin-1-yl)ethanone]",inhibition at 10 µM,[1],103%
same,inhibition at 10 µM,[2],99.9%
"O=C(COCC1CCCCN1S(=O)(=O)c1c(Cl)cccc1Cl)N1CCC(O)(c2ccc(Cl)c(C(F)(F)F)c2)CC1 (centres unmarked) [Example 236, 1-(4-(4-chloro-3-(trifluoromethyl)phenyl)-4-hydroxypiperidin-1-yl)-2-((1-(2,6-dichlorophenylsulfonyl)piperidin-2-yl)methoxy)ethanone]",inhibition at 10 µM,[1],102%
same,inhibition at 10 µM,[2],99.9%
"COc1cc(C)c(S(=O)(=O)N(CCOCC(=O)N2CCC(O)(c3ccc(Cl)c(C(F)(F)F)c3)CC2)CC2CC2)c(C)c1C [Example 237, N-(2-(2-(4-(4-chloro-3-(trifluoromethyl)phenyl)-4-hydroxypiperidin-1-yl)-2-oxoethoxy)ethyl)-N-(cyclopropylmethyl)-4-methoxy-2,3,6-trimethylphenyl-sulfonamide]",inhibition at 10 µM,[1],103%
same,inhibition at 10 µM,[2],100%
"COc1cc(C)c(S(=O)(=O)N(CCOCC(=O)N2CCC(O)(c3ccc(Cl)c(C(F)(F)F)c3)CC2)CC(C)C)c(C)c1C [Example 238, N-(2-(2-(4-(4-chloro-3-(trifluoromethyl)phenyl)-4-hydroxypiperidin-1-yl)-2-oxoethoxy)ethyl)-N-isobutyl-4-methoxy-2,3,6-trimethylphenylsulfonamide]",inhibition at 10 µM,[1],57.3%
same,inhibition at 10 µM,[2],97.4%
"COc1cc(C)c(S(=O)(=O)N2CCCC2COCC(=O)N2CCC(O)(c3cccs3)CC2)c(C)c1 (centres unmarked) [Example 239, 1-(4-hydroxy-4-(thiophen-2-yl)piperidin-1-yl)-2-((1-(4-methoxy-2,6-dimethylphenylsulfonyl)pyrrolidin-2-yl)methoxy)ethanone]",inhibition at 10 µM,[1],105%
same,inhibition at 10 µM,[2],98.9%
"COc1cc(C)c(S(=O)(=O)N(CCOCC(=O)N2CCC(O)(c3cccnc3)CC2)CC2CC2)c(C)c1C [Example 240, N-(cyclopropylmethyl)-N-(2-(2-(4-hydroxy-4-(pyridin-3-yl)piperidin-1-yl)-2-oxoethoxy)ethyl)-4-methoxy-2,3,6-trimethylphenylsulfonamide]",inhibition at 10 µM,[1],103%
same,inhibition at 10 µM,[2],99.4%
"COc1cc(C)c(S(=O)(=O)N(CCOCC(=O)N2CCC(O)(c3cccnc3)CC2)CC(C)C)c(C)c1C [Example 241, N-(2-(2-(4-hydroxy-4-(pyridin-3-yl)piperidin-1-yl)-2-oxoethoxy)ethyl)-N-isobutyl-4-methoxy-2,3,6-trimethylphenylsulfonamide]",inhibition at 10 µM,[1],103%
same,inhibition at 10 µM,[2],101%
"COc1cc(C)c(S(=O)(=O)N2CCCCC2COCC(=O)N2CCC(O)(c3ccc(Cl)cc3)CC2)c(C)c1 (centres unmarked) [Example 242, 1-(4-(4-chlorophenyl)-4-hydroxypiperidin-1-yl)-2-((1-(4-methoxy-2,6-dimethylphenylsulfonyl)piperidin-2-yl)methoxy)ethanone]",inhibition at 10 µM,[1],101%
same,inhibition at 10 µM,[2],98.4%
"COc1cc(C)c(S(=O)(=O)N2CCCCC2COCC(=O)N2CCC(O)(c3ccc(Br)cc3)CC2)c(C)c1 (centres unmarked) [Example 243, 1-(4-(4-bromophenyl)-4-hydroxypiperidin-1-yl)-2-((1-(4-methoxy-2,6-dimethylphenylsulfonyl)piperidin-2-yl)methoxy)ethanone]",inhibition at 10 µM,[1],104%
same,inhibition at 10 µM,[2],96.8%
"COc1cc(C)c(S(=O)(=O)N2CCCCC2COCC(=O)N2CCC(O)(c3ccccc3)CC2)c(C)c1 (centres unmarked) [Example 244, 1-(4-hydroxy-4-phenylpiperidin-1-yl)-2-((1-(4-methoxy-2,6-dimethylphenylsulfonyl)piperidin-2-yl)methoxy)ethanone]",inhibition at 10 µM,[1],105%
same,inhibition at 10 µM,[2],99.3%
"COc1cc(C)c(S(=O)(=O)N2CCCCC2COCC(=O)N2CCC(O)(Cc3ccccc3)CC2)c(C)c1 (centres unmarked) [Example 245, 1-(4-benzyl-4-hydroxypiperidin-1-yl)-2-((1-(4-methoxy-2,6-dimethylphenylsulfonyl)piperidin-2-yl)methoxy)ethanone]",inhibition at 10 µM,[1],99.8%
same,inhibition at 10 µM,[2],97.7%
"COc1cc(C)c(S(=O)(=O)N2CCCCC2COCC(=O)N2CCC(O)(c3ccc(Cl)c(C(F)(F)F)c3)CC2)c(C)c1 (centres unmarked) [Example 246, 1-(4-(4-chloro-3-(trifluoromethyl)phenyl)-4-hydroxypiperidin-1-yl)-2-((1-(4-methoxy-2,6-dimethylphenylsulfonyl)piperidin-2-yl)methoxy)ethanone]",inhibition at 10 µM,[1],103%
same,inhibition at 10 µM,[2],99%
"O=C(COCC1CCN(S(=O)(=O)c2c(Cl)cc(Cl)cc2Cl)C1)N1CCC(O)(Cc2ccccc2)CC1 (centres unmarked) [Example 248, 1-(4-benzyl-4-hydroxypiperidin-1-yl)-2-((1-(2,4,6-trichlorophenylsulfonyl)pyrrolidin-3-yl)methoxy)ethanone]",inhibition at 10 µM,[1],40%
same,inhibition at 10 µM,[2],85.1%
"O=C(COC1CCCN(S(=O)(=O)c2c(Cl)cc(Cl)cc2Cl)C1)N1CCC(O)(Cc2ccccc2)CC1 (centres unmarked) [Example 249, 1-(4-benzyl-4-hydroxypiperidin-1-yl)-2-(1-(2,4,6-trichlorophenylsulfonyl)piperidin-3-yloxy)ethanone]",inhibition at 10 µM,[1],70.8%
same,inhibition at 10 µM,[2],87.3%
"O=C(COC1CCCN(S(=O)(=O)c2c(Cl)cc(Cl)cc2Cl)C1)N1CCC(O)(c2ccc(Cl)c(C(F)(F)F)c2)CC1 (centres unmarked) [Example 250, 1-(4-(4-chloro-3-(trifluoromethyl)phenyl)-4-hydroxypiperidin-1-yl)-2-(1-(2,4,6-trichlorophenylsulfonyl)piperidin-3-yloxy)ethanone]",inhibition at 10 µM,[1],18%
same,inhibition at 10 µM,[2],76.3%
"COc1cc(C)c(S(=O)(=O)N2CCCC(COCC(=O)N3CCC(O)(c4ccc(Cl)cc4)CC3)C2)c(C)c1 (centres unmarked) [Example 251, 1-(4-(4-chlorophenyl)-4-hydroxypiperidin-1-yl)-2-((1-(4-methoxy-2,6-dimethylphenylsulfonyl)piperidin-3-yl)methoxy)ethanone]",inhibition at 10 µM,[1],47.8%
same,inhibition at 10 µM,[2],92.9%
"COc1cc(C)c(S(=O)(=O)N2CCCC(COCC(=O)N3CCC(O)(Cc4ccccc4)CC3)C2)c(C)c1 (centres unmarked) [Example 252, 1-(4-benzyl-4-hydroxypiperidin-1-yl)-2-((1-(4-methoxy-2,6-dimethylphenylsulfonyl)piperidin-3-yl)methoxy)ethanone]",inhibition at 10 µM,[1],32.7%
same,inhibition at 10 µM,[2],100%
"O=C(COCC1CCCN(S(=O)(=O)c2c(Cl)cc(Cl)cc2Cl)C1)N1CCC(O)(c2ccc(Cl)cc2)CC1 (centres unmarked) [Example 254, 1-(4-(4-chlorophenyl)-4-hydroxypiperidin-1-yl)-2-((1-(2,4,6-trichlorophenylsulfonyl)piperidin-3-yl)methoxy)ethanone]",inhibition at 10 µM,[1],62.5%
same,inhibition at 10 µM,[2],36.8%
"O=C(COCC1CCCN(S(=O)(=O)c2c(Cl)cc(Cl)cc2Cl)C1)N1CCC(O)(c2ccccc2)CC1 (centres unmarked) [Example 255, 1-(4-hydroxy-4-phenylpiperidin-1-yl)-2-((1-(2,4,6-trichlorophenylsulfonyl)piperidin-3-yl)methoxy)ethanone]",inhibition at 10 µM,[1],82.5%
same,inhibition at 10 µM,[2],73.7%
